Reference: patent publication US20260226084A1, “DUAL RAF AND TUBULIN INHIBITORS AND METHODS OF USE THEREOF” (Deciphera Pharmaceuticals, LLC, priority 2023, published 2026)

Tests used:
[1] = molecular target: T1, C-Raf kinase (SEQ ID NO: 2) (Homo sapiens, UniProt P04049, Y340D/Y341D); test: Biochemical Assay for C-Raf (coupled pyruvate kinase/lactate dehydrogenase assay); conditions: 1 mM ATP; read-out: CRAF (inhibition of biochemical activity, IC50)
T1 construct: C-Raf residues 306-end; Y340D, Y341D with; GST (N); purchased Sigma

Pa16c cells = test: Pa16c Cell Proliferation Assay; format: cell-based; conditions: Table 2, read-out: Inhibition of cell proliferation in Pa16c (IC50 class)
Protocol: Pa16c cells are obtained from Dr. Channing Der, University of North Carolina at Chapel Hill. Briefly, cells are grown in Dulbecco's Modified Eagle Medium supplemented with 10% characterized fetal bovine serum (Invitrogen, Carlsbad, CA) and 1% Penicillin/Streptomycin/L-Glutamine at 37° C., 5% CO2, and 95% humidity. Cells are expanded until reaching 70-95% confluency at which point they are sub-cultured or harvested for assay use. A serial dilution of test compound is dispensed into a 384-well black clear bottom plate in triplicate. 750 cells are added per well in 50 μL complete growth medium in the 384-well plate. Plates are incubated for 67 to 72 h at 37° C., 5% CO2, and 95% humidity. At the end of the incubation, 40 μL of a 440 μM solution of resazurin (Sigma, St. Louis, MO) in PBS is added to each well of the plate and plates are incubated for an additional 18 to 24 hours at 37° C., 5% CO2, and 95% humidity. Plates are read on a Synergy2 or equivalent reader (Biotek, Winooski, VT) using an excitation of 540 nm and an emission of 600 nm. Data is analyzed using Prism software (Graphpad, San Diego, CA) to calculate IC50 values.

HCT-116 cells = test: HCT-116 Cell Proliferation Assay; format: cell-based; conditions: Homo sapiens, HCT-116, HCT-116 cells; Table 2; read-out: Inhibition of cell proliferation in HCT-116 (IC50 class)
Protocol: HCT-116 cells (catalog #CCL-247) are obtained from the American Type Culture Collect (ATCC, Manassas, VA). Briefly, cells are grown in McCoy's 5A supplemented with 10% characterized fetal bovine serum (Invitrogen, Carlsbad, CA) and 1% Penicillin/Streptomycin/L-Glutamine at 37° C., 5% CO2, and 95% humidity. Cells are expanded until reaching 70-95% confluency at which point they are subcultured or harvested for assay use. A serial dilution of test compound is dispensed into a 384-well black clear bottom plate in triplicate. 375 cells are added per well in 50 μL complete growth medium in the 384-well plate. Plates are incubated for 67 to 72 hours at 37° C., 5% CO2, and 95% humidity. At the end of the incubation, 40 μL of a […] solution of resazurin (Sigma, St. Louis, MO) in PBS is added to each well of the plate and plates are incubated for an additional 4 to 5 h at 37° C., 5% CO2, and 95% humidity. Plates are read on a Synergy2 or equivalent reader (Biotek, Winooski, VT) using an excitation of 540 nm and an emission of 600 nm. Data is analyzed using Prism software (Graphpad, San Diego, CA) to calculate IC50 values.

HPAF-II cells = test: HPAF-II Cell Proliferation Assay; format: cell-based; conditions: Homo sapiens, HPAF-II, HPAF-II cells; Table 2; read-out: Inhibition of cell proliferation in HPAF-II (IC50 class)
Protocol: HPAF-II cells (catalog #CRL-1997) are obtained from the American Type Culture Collect (ATCC, Manassas, VA). Briefly, cells are grown in Minimum Essential Media supplemented with 10% characterized fetal bovine serum (Invitrogen, Carlsbad, CA) and 1% Penicillin/Streptomycin/L-Glutamine at 37° C., 5% CO2, and 95% humidity. Cells are expanded until reaching 70-95% confluency at which point they are sub-cultured or harvested for assay use. A serial dilution of test compound is dispensed into a 384-well black clear bottom plate in triplicate. 750 cells are added per well in 50 μL complete growth medium in the 384-well plate. Plates are incubated for 115 to 120 hours at 37° C., 5% CO2, and 95% humidity. At the end of the incubation, 40 μL of a 440 μM solution of resazurin (Sigma, St. Louis, MO) in PBS is added to each well of the plate and plates are incubated for an additional 18 to 24 hours at 37° C., 5% CO2, and 95% humidity. Plates are read on a Synergy2 or equivalent reader (Biotek, Winooski, VT) using an excitation of 540 nm and an emission of 600 nm. Data is analyzed using Prism software (Graphpad, San Diego, CA) to calculate IC50 values.

MiaPaca-2 cells = test: MiaPaca-2 Cell Proliferation Assay; format: cell-based; conditions: Homo sapiens, MIA PaCa-2, MiaPaca-2 cells; Table 2; read-out: Inhibition of cell proliferation in MiaPaca-2 (IC50 class)
Protocol: Miapaca-2 cells (catalog #CRL-1420) are obtained from the American Type Culture Collect (ATTC, Manassas, VA). Briefly, cells were grown in DMVEM supplemented with 10 characterized fetal bovine serum (Invitrogen, Carlsbad, CA), 2.5% New Zealand sourced horse serum and 1 Penicillin/Streptomycin/L-Glutamine at 37° C., 5 CO2, and 95% humidity. Cells are expanded until reaching 70-95% confluency at which point they are sub-cultured or harvested for assay use. A serial dilution of test compound is dispensed into a 96-well black clear bottom plate in triplicate. Three thousand cells are added per well in 200 μL complete growth medium in the 96-well plate. Plates are incubated for 67 to 72 h at 37° C., 5% CO2, and 95% humidity. At the end of the incubation, 40 μL of a 440 μM solution of resazurin (Sigma, St. Louis, MO) in PBS is added to each well of the plate and plates are incubated for an additional 5 to 6 h at 37° C., 5% CO2, and 95% humidity. Plates are read on a Synergy2 or equivalent reader (Biotek, Winooski VT) using an excitation of 540 nm and an emission of 600 nm. Data is analyzed using Prism software (Graphpad, San Diego, CA) to calculate IC50 values.

[2] = molecular target: T2, B-Raf kinase (SEQ ID NO: 1) (Homo sapiens, UniProt P15056); test: Biochemical Assay for B-Raf (coupled pyruvate kinase/lactate dehydrogenase assay); conditions: 1 mM ATP; read-out: BRAF (inhibition of biochemical activity, IC50)
T2 construct: GST (N); purchased Sigma
T2 sequence (P15056 416-766): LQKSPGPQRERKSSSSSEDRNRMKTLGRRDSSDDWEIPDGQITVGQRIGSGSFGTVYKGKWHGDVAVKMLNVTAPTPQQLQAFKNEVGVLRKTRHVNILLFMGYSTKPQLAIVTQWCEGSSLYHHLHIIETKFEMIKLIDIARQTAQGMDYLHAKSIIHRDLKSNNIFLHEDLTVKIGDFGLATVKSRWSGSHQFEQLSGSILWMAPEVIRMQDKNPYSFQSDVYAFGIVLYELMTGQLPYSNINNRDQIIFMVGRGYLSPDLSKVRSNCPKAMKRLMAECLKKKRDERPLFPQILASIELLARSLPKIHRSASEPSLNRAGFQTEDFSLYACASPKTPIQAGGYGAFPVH

T1 sequence (P04049 307-648 Y340D/Y341D): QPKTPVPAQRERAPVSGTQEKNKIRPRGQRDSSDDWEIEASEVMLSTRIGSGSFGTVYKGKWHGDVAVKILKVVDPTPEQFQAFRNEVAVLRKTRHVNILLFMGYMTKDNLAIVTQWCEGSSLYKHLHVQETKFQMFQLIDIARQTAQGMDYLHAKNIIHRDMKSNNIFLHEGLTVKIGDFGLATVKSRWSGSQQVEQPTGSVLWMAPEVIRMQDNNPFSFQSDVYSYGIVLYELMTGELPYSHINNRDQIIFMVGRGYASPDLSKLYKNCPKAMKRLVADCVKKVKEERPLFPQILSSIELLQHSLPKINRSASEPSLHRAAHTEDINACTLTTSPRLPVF

| IC50 [1] [nM] | IC50 (HCT-116 cells) [nM] | IC50 (MiaPaca-2 cells) [nM] | IC50 [2] [nM] | Compound | IC50 (Pa16c cells) [nM] | IC50 (HPAF-II cells) [nM] |
| --- | --- | --- | --- | --- | --- | --- |
| < 100 | 1000 to 10000 | 1000 to 10000 | < 100 | Cc1cc(-c2cc(NC(=O)c3cc(C(F)(F)F)cnn3)cnc2C)cc(-c2ccnc(NC(=O)C3CC3)c2)n1 [Example 35] | 1000 to 10000 | 1000 to 10000 |
| < 100 | 100 to 500 | 1000 to 10000 | < 100 | Cc1cnc(NC(=O)c2cc(C(F)(F)F)cnn2)cc1-c1ccnc(-c2ccnc(NC(=O)C3CC3)c2)c1 [Example 36] | 1000 to 10000 | 1000 to 10000 |
| < 100 | 100 to 500 | < 100 | < 100 | Cc1ccc(NC(=O)c2cc(C(F)(F)F)cnn2)cc1-c1ccnc(-c2ccnc(/N=C/N(C)C)c2)c1 [Example 37, (E)-N-(3-(2′-(((dimethylamino)methylene)amino)-[2,4′-bipyridin]-4-yl)-4-methylphenyl)-5-(trifluoromethyl)pyridazine-3-carboxamide] | < 100 | 1000 to 10000 |
| < 100 | 100 to 500 | 100 to 500 | < 100 | Cc1ccc(NC(=O)c2cc(C(C)C)cnn2)cc1-c1ccnc(-c2ccnc(NC(=O)C3CC3)c2)c1 [Example 38] | 500 to 1000 | 100 to 500 |
| < 100 | 100 to 500 | 500 to 1000 | < 100 | Cc1ccc(NC(=O)c2cc(C(F)(F)F)cnn2)cc1-c1cncc(-c2ccnc(NC(=O)C3CC3)c2)c1 [Example 39] | 100 to 500 | 500 to 1000 |
| < 100 | 100 to 500 | 500 to 1000 | < 100 | Cc1ccc(NC(=O)c2cc(Cl)cnn2)cc1-c1ccnc(-c2ccnc(NC(=O)C3CC3)c2)c1 [Example 40] | 500 to 1000 | 500 to 1000 |
| < 100 | 100 to 500 | 100 to 500 | 100 to 500 | Cc1ccc(NC(=O)c2cc(C(F)(F)F)cnn2)cc1-c1ccnc(-c2ccnc(NC(=O)C3(C)CC3)c2)c1 [Example 41] | < 100 | 1000 to 10000 |
| < 100 | < 100 | < 100 | < 100 | Cc1ccc(NC(=O)c2cc(C3CCC3)cnn2)cc1-c1ccnc(-c2ccnc(NC(=O)C3CC3)c2)c1 [Example 44] | < 100 | 100 to 500 |
| < 100 | 1000 to 10000 | 1000 to 10000 | < 100 | O=C(Nc1cc(-c2ccnc(-c3ccnc(NC(=O)C4CC4)c3)c2)c(F)cc1F)c1cc(C(F)(F)F)cnn1 [Example 46] | 1000 to 10000 | 1000 to 10000 |
| < 100 | 1000 to 10000 | 1000 to 10000 | < 100 | O=C(Nc1ccc(F)c(-c2ccnc(-c3ccnc(NC(=O)C4CC4)c3)c2)c1)c1cc(C(F)(F)F)cnn1 [Example 47] | 1000 to 10000 | 1000 to 10000 |
| < 100 | < 100 | < 100 | < 100 | COCC(=O)Nc1cc(-c2cc(-c3cc(NC(=O)c4cc(C(F)(F)F)cnn4)ccc3C)ccn2)ccn1 [Example 48] | < 100 | 100 to 500 |
| < 100 | 100 to 500 | 500 to 1000 | < 100 | COc1cnnc(C(=O)Nc2ccc(C)c(-c3ccnc(-c4ccnc(NC(=O)C5CC5)c4)c3)c2)c1 [Example 49] | 1000 to 10000 | 100 to 500 |
| 100 to 500 | 100 to 500 | < 100 | < 100 | CNc1cc(-c2cc(-c3cc(NC(=O)c4cc(C(F)(F)F)cnn4)ccc3C)ccn2)ccn1 [Example 50] | 100 to 500 | 100 to 500 |
| < 100 | 100 to 500 | 100 to 500 | < 100 | Cc1ccc(NC(=O)c2cc(C(F)(F)F)cnn2)cc1-c1ccnc(-c2ccnc(NC(=O)C3CCN(C)C3)c2)c1 (stereo not drawn) [Example 51] | 500 to 1000 | 100 to 500 |
| < 100 | 100 to 500 | 100 to 500 | < 100 | Cc1ccc(NC(=O)c2cc(C(F)(F)F)cnn2)cc1-c1ccnc(-c2ccnc(NC(=O)CN(C)C)c2)c1 [Example 52] | 500 to 1000 | 100 to 500 |
| 500 to 1000 | 100 to 500 | 100 to 500 | 500 to 1000 | Cc1ccc(NC(=O)c2cc(C(F)(F)F)cnn2)cc1-c1ccnc(-c2ccnc(NCC(F)(F)F)c2)c1 [Example 53] | 1000 to 10000 | 100 to 500 |
| 1000 to 10000 | 100 to 500 | 100 to 500 | 1000 to 10000 | Cc1ccc(NC(=O)c2cc(C(F)(F)F)cnn2)cc1-c1ccnc(-c2ccnc(NC(C)C)c2)c1 [Example 54] | 100 to 500 | 100 to 500 |
| < 100 | < 100 | 500 to 1000 | < 100 | Cc1ccc(NC(=O)c2cc(C(C)C)cnn2)cc1-c1cncc(-c2ccnc(NC(=O)C3CC3)c2)c1 [Example 55] | 1000 to 10000 | 100 to 500 |
| < 100 | 500 to 1000 | 500 to 1000 | 100 to 500 | Cc1ccc(NC(=O)c2cnc(C(F)(F)F)cn2)cc1-c1ccnc(-c2ccnc(NC(=O)C3CC3)c2)c1 [Example 56] | 1000 to 10000 | 1000 to 10000 |
| 100 to 500 | < 100 | 100 to 500 | 500 to 1000 | Cc1ccc(NC(=O)c2ccc(C(F)F)nn2)cc1-c1ccnc(-c2ccnc(NC(=O)C3CC3)c2)c1 [Example 58] | 1000 to 10000 | 100 to 500 |
| < 100 | 100 to 500 | 1000 to 10000 | < 100 | Cc1cc(F)c(NC(=O)c2cc(C(F)(F)F)cnn2)cc1-c1ccnc(-c2ccnc(NC(=O)C3CC3)c2)c1 [Example 60] | 1000 to 10000 | 1000 to 10000 |
